Experiments:
[1] = target: scNS4A-NS3 (Hepatitis C virus genotype 1b, UniProt Q9WMX2); assay: NS3 protease assay (ENZOLYTE 520), full-length; assay type: biochemical, hepatitis C virus genotype 1b(con1); design: other: average of two sets; There is also a His tag
Description: All oligonucleotides were purchased from Integrated DNA Technologies (IDT, Coralville, Iowa). Primuline derivatives were synthesized and purified as described herein. Three different NS3 proteins were used in this study. Two were truncated C-terminally His-tagged NS3 proteins lacking the N-terminal protease, called NS3h, the third was a full-length NS3 with the portion of NS4A needed for protease activation fused to its N-terminus, called scNS4A-NS3 (Howe, et al. (1999) Protein Sci. 8:1332-41), and the fourth was a 23 kDa scNS4A-NS3 protease fragment lacking the helicase domains, called scNS4A-NS3p (Protein One, Rockville, Md.). NS3h was expressed from two different HCV strains. NS3h_1b(con1) was from the con1 strain of genotype 1b (GENBANK accession AB114136), and NS3h_2a(JFH1) was from the JFH1 strain of HCV genotype 2a (GENBANK accession AJ238799). […] His-tagged recombinant NS3h_1b(con1), NS3h_2a(JFH1), and scNS4A-NS3 (also from genotype 1b(con1)) were expressed, and purified as previously described (Frick, et al. (2010) supra; Lam, et al. (2003) J. Virol. 77:3950-3961). The scNS4A-NS3p (genotype 1b) was from Protein One. A plasmid expressing NS3h from dengue virus strain 2 (NS3h_DV2)(GENBANK accession 2BMF) is known in the art (Xu, et al. (2005) J. Virol. 79:10278-10288), and used to express and purify NS3h_DV2 (Belon, et al. (2010) supra)
All NS3 protease assays were carried out using the 5-Carboxyfluorescein-labeled substrate from the AnaSpec. ENZOLYTE 520 Protease Assay Kit (AnaSpec, San Jose, Calif.). Each assay contained 5 nM scNS4A-NS3 or 50 nM scNS4A-NS3p, […], 5% DMSO and 1× Anaspec HCV protease assay buffer. Assays were carried out in a total volume of 20 μl in black 384-well plates with fluorescence at 520 nm measured using a BMG FLUOstar Omega fluorescence spectrophotometer. Reactions were performed with eight concentrations of a two-fold dilution series of each compound (in duplicate) starting at 100 μM.

[2] = Absorbance and fluorescence properties; assay type: physicochemical; details: for Absorbance ∈: extinction coefficient
Source text: Most of the compounds isolated from the two yellow dyes were fluorescent, absorbing light around 340 nm, and emitting near 420 nm. Their extinction coefficient and peak absorption wavelengths increased as the length of the benzothiazole oligomer increased. Their relative fluorescence decreased with the length of the benzothiazole chain. None of the compounds absorbed light near either the absorption or emission wavelengths of the Cy5-labeled MBHA substrate, or the wavelengths where the fluorescence of ethidium bromide stained DNA, SYBER green I-stained DNA, NS3-catalyzed peptide cleavage, or ATP hydrolysis were measured.
When directly compared with P4, the semi-synthetic primuline derivatives have a sharper absorbance peak centered near 360 nm, and they emit 3-15 times more light when excited at their absorbance maximum. […] Some compounds, like 12, stained both the cytoplasm and nucleus, but they also stained glass coverslips.

[3] = target: T1, NS3h_1b (Hepatitis C virus genotype 1b, UniProt Q9WMX2); assay: ATPase assay without RNA; assay type: biochemical, hepatitis C virus genotype 1b(con1)
T1 construct: truncated C-terminally His-tagged NS3 proteins lacking the N-terminal protease, called NS3h; His-tag (C); made in house
T1 sequence (Q9WMX2 1192-1657): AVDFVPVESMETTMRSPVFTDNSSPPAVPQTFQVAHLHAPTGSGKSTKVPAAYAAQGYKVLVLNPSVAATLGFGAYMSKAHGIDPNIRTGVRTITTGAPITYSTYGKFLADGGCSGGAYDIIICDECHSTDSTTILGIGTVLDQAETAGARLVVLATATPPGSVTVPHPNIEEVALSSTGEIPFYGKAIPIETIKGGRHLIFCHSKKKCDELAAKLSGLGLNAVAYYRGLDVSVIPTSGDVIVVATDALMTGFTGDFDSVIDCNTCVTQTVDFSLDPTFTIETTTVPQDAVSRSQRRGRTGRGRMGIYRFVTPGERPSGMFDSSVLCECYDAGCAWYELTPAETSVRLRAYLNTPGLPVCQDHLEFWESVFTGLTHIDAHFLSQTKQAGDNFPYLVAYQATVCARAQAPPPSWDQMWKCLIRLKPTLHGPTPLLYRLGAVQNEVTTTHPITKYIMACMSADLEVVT
Description: A modified “malachite green” assay (Lanzetta, et al. (1979) Anal. Biochem. 100:95-97) was used to measure ATP hydrolysis. Fifty μL reactions contained 25 mM MOPS pH 6.5, 5 mM MgCl2, 2 mM ATP, 5 μg/mL BSA, 0.01% (v/v) TWEEN 20, 0.05 mM DTT, and poly(U) RNA (Saint Louis, Mo.) as indicated. Reactions were initiated by adding NS3h_1b(con1). Reactions were incubated for 15 minutes at 37° C. then stopped by mixing 40 μL of the reaction into 200 μL of the malachite green reagent (3 volumes 0.045% (w/v) malachite green, 1 volume 4.2% ammonium molybdate in 4N HCl, 0.05 volume of 20% TWEEN 20). […] Absorbance at 630 nm was proportional to the concentration of phosphate produced; free phosphate produced was measured against a standard curve.
A simple explanation for the ability of some of the primuline derivatives to inhibit helicase and protease with similar potency would be that the compounds acted by simply aggregating or denaturing the enzyme. To test for irreversible inhibition, NS3h was incubated with 100 μM of each compound, diluted and then assayed for its ability to unwind DNA under standard conditions. […] In a second test for a simple aggregation mechanism, each compound was tested for its ability to inhibit NS3-catalyzed ATP hydrolysis. ATP hydrolysis fuels the unwinding reaction and NS3 hydrolyzes ATP both in the presence and absence of DNA or RNA; nucleic acid stimulates NS3 catalyzed ATP hydrolysis about 50-fold. […] To test this hypothesis, ATPase assays were performed in the presence of various concentrations of each primuline derivative, under conditions similar to those used to monitor effects on DNA and RNA unwinding. Far more of each compound was needed to inhibit NS3-catalyzed ATP hydrolysis than was needed to inhibit the helicase activity, or, in some cases, NS3 protease activity (Table 11).

[4] = target: T2, NS3h_1b(con1) (Hepatitis C virus genotype 1b, UniProt Q9WMX2); assay: RNA-stimulated ATP hydrolysis, pH 7.5, HCV; assay type: biochemical, hepatitis C virus genotype 1b(con1)
T2 construct: truncated C-terminally His-tagged NS3 proteins lacking the N-terminal protease, called NS3h; His-tag (C); made in house
T2 sequence (Q9WMX2 1192-1657): as above
Description: To compare the effect of compounds on HCV NS3h_1b (con1) to NS3h_DV2, reactions were performed with 2 nM of either enzyme in 25 mM Tris pH 7.5, 1.25 mM MgCl2, 1.0 mM ATP, 10% DMSO, 5 μg/ml BSA, 0.01% (v/v) TWEEN 20, 0.05 mM DTT, and 10 μM poly(U) RNA at 37° C.
To further profile compound specificity, it was determined whether the compounds would inhibit homologous NS3h expressed by the Dengue virus (NS3h_DV2). […] The same assays were also repeated with HCV NS3h_1b(con1) for comparison. […] However, most of the primuline derivatives were relatively potent inhibitors of RNA-stimulated ATP hydrolysis catalyzed by the Dengue enzyme under the same conditions.

[5] = target: T3, NS3h_2a (Hepatitis C virus genotype 2a, UniProt Q99IB8); assay: RNA helicase assay (three-stranded RNA substrate); assay type: biochemical, hepatitis C virus genotype 2a(JFH1)
T3 construct: truncated C-terminally His-tagged NS3 proteins lacking the N-terminal protease, called NS3h; His-tag (C); made in house
T3 sequence (Q99IB8 1196-1661): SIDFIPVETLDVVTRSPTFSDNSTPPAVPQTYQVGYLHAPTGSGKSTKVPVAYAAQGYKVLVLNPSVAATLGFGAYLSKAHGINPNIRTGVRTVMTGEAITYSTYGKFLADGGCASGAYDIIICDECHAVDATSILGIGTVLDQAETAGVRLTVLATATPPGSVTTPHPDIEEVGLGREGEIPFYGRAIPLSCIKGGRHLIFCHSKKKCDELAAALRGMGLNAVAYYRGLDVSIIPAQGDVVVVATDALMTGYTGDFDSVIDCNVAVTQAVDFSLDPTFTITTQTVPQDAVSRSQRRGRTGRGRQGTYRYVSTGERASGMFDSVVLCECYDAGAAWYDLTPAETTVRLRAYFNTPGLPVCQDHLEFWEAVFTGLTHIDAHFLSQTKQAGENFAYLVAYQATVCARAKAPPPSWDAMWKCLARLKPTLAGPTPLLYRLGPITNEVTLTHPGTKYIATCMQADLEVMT
Description: To act as antivirals in cells, it is also important for an HCV helicase inhibitor to inhibit the activity of the NS3h on RNA. […] As with protein specificity, no differences were uncovered regarding substrate specificity for any of the compounds tested. In other words, none of the compounds preferred to act either on DNA or RNA substrates.

Sequence of scNS4A-NS3 (Q9WMX2 1027-1657): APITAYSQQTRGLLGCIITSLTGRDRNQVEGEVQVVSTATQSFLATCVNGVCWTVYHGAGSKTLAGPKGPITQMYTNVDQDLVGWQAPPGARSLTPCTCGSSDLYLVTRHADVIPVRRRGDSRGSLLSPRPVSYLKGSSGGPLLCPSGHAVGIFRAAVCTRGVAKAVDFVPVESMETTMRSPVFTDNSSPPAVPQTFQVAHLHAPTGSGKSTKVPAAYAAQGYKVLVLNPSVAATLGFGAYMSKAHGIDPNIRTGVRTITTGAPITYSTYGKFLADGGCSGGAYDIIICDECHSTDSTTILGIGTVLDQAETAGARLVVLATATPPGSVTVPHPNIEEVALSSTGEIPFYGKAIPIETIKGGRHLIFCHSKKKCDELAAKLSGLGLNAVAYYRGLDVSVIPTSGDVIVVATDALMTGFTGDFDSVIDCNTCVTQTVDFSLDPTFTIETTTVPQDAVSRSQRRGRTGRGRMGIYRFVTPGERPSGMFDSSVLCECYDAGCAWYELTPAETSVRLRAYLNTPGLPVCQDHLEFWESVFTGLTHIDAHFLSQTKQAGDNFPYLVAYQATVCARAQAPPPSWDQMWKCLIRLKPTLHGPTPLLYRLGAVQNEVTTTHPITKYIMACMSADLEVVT

Structure (SMILES)	IC50 [1] [µM]	Absorbance λmax [2] [nm]	Fluorescence Emmax [2] [nm]	Fluorescence RFU@ 10 μM [2] [RFU]	Absorbance ∈ [2]	IC50 [3] [µM]	IC50 [4] [µM]	IC50 [5] [µM]
Cc1ccc2nc(-c3ccc4nc(-c5ccc(NC(=O)c6ccc(C(F)(F)F)cc6)cc5)sc4c3)sc2c1S(=O)(=O)O [Compound 12, 6-methyl-2′-(4-(4-(trifluoromethyl)benzamido)phenyl)-[2,6′-bibenzo[d]thiazole]-7-sulfonic acid]	5 ± 1	356	498	158	42,750 M^−1cm^−1	24 ± 5	16 ± 5	3 ± 1
Cc1ccc2nc(-c3ccc4nc(-c5ccc(NC(=O)c6ccc(C(C)(C)C)cc6)cc5)sc4c3)sc2c1S(=O)(=O)O [Compound 13, 2′-(4-(4-(tert-butyl)benzamido)phenyl)-6-methyl-[2,6′-bibenzo[d]thiazole]-7-sulfonic acid]	56 ± 23	356	502	164	37,150 M^−1cm^−1	150 ± 21	150 ± 40	9 ± 9
Cc1ccc2nc(-c3ccc4nc(-c5ccc6nc(-c7ccc8nc(-c9ccc(N)cc9)sc8c7)sc6c5)sc4c3)sc2c1S(=O)(=O)O [Compound P4, 2′″-(4-aminophenyl)-6-methyl-[2,6′:2″,6′″-quaterbenzo[d]thiazole]-7-sulfonic acid]	2 ± 1	382	467	3	32,000 M^−1cm^−1	43 ± 10	–	3 ± 1.3
Cc1ccc2nc(-c3ccc4nc(-c5ccc(NC(=O)c6ccc(F)cc6)cc5)sc4c3)sc2c1S(=O)(=O)O.N [Compound 7, 2′-(4-(4-fluorobenzamido)phenyl)-6-methyl-[2, bibenzo[d]thiazole]-7-sulfonic acid]	89 ± 47	356	496	111	24,950 M^−1cm^−1	67 ± 30	73 ± 13	4 ± 2
Cc1ccc2nc(-c3ccc4nc(-c5ccc(N)cc5)sc4c3)sc2c1S(=O)(=O)O [Compound P2a, 2′-(4-aminophenyl)-6-methyl-[2,6′-bibenzo[d]thiazole]-7-sulfonic acid]	> 100	366	553	15	38,550 M^−1cm^−1	> 200	> 200	32 ± 14
Cc1ccc2nc(-c3ccc4nc(-c5ccc(NC(=O)c6ccc7ccccc7c6)cc5)sc4c3)sc2c1S(=O)(=O)O [Compound 33, 2′-(4-(2-naphthamido)phenyl)-6-methyl-[2,6′-bibenzo[d]thiazole]-7-sulfonic acid]	> 100	359	496	236	63,450 M^−1cm^−1	30 ± 6	52 ± 6	3 ± 2
Cc1ccc2nc(-c3ccc4nc(-c5ccc(NC(=O)c6ccc(Cl)c(Cl)c6)cc5)sc4c3)sc2c1S(=O)(=O)O [Compound 18, 2′-(4-(3,4-dichlorobenzamido)phenyl)-6-methyl-[2,6′-bibenzo[d]thiazole]-7-sulfonic acid]	13 ± 4	356	501	203	44,000 M^−1cm^−1	44 ± 12	72 ± 13	4 ± 2
Cc1ccc2nc(-c3ccc4nc(-c5ccc(NC(=O)c6cccc(Cl)c6)cc5)sc4c3)sc2c1S(=O)(=O)O [Compound 17, 2′-(4-(3-chlorobenzamido)phenyl)-6-methyl-[2,6′-bibenzo[d]thiazole]-7-sulfonic acid]	> 100	356	502	215	59,500 M^−1cm^−1	74 ± 7	51 ± 3	6 ± 3.1
Cc1ccc2nc(-c3ccc4nc(-c5ccc(NC(=O)c6cc(C(F)(F)F)ccc6F)cc5)sc4c3)sc2c1S(=O)(=O)O [Compound 25, 2′-(4-(2-fluoro-5-(trifluoromethyl)benzamido)phenyl)-6-methyl-[2,6′-bibenzo[d]thiazole]-7-sulfonic acid]	51 ± 25	355	497	159	41,750 M^−1cm^−1	61 ± 13	19 ± 2	10 ± 3
Cc1ccc2nc(-c3ccc4nc(-c5ccc(NC(=O)c6ccc7nc(-c8ccc(N)cc8)sc7c6)cc5)sc4c3)sc2c1S(=O)(=O)O [Compound 35, 2′-(4-(2-(4-aminophenyl)benzo[d]thiazole-6-carboxamido)phenyl)-6-methyl-[2,6′-bibenzo[d]thiazole]-7-sulfonic acid]	7 ± 1	361	532	2	42,000 M^−1cm^−1	> 200	150 ± 2	6 ± 5.4
Cc1ccc2nc(-c3ccc4nc(-c5ccc(NC(=O)c6ccc(Br)cc6)cc5)sc4c3)sc2c1S(=O)(=O)O [Compound 15, 2′-(4-(4-bromobenzamido)phenyl)-6-methyl-[2,6′-bibenzo[d]thiazole]-7-sulfonic acid]	6 ± 1	356	497	209	51,600 M^−1cm^−1	50 ± 4	21 ± 1	4 ± 2

Source: patent publication US9464064B2, “HCV helicase inhibitors and methods of use thereof” (University of Kansas, priority 2011, dated 2016)
